Reference: article PMC4854315, “Discovery of a novel allosteric inhibitor-binding site in ERK5: comparison with the canonical kinase hinge ATP-binding site” (Acta Crystallographica. Section D, Structural Biology, 2016)

Legend:
Assay in all cases: Z'-LYTE kinase panel
Type in all cases: biochemical
[1] = target: T1, MAP2K6 (MKK6) (Homo sapiens, UniProt P52564); conditions: 10 µM compound; ATP 100
T1 construct: purchased ThermoFisher (SelectScreen, Z'-LYTE)
T1 sequence (P52564 1-334): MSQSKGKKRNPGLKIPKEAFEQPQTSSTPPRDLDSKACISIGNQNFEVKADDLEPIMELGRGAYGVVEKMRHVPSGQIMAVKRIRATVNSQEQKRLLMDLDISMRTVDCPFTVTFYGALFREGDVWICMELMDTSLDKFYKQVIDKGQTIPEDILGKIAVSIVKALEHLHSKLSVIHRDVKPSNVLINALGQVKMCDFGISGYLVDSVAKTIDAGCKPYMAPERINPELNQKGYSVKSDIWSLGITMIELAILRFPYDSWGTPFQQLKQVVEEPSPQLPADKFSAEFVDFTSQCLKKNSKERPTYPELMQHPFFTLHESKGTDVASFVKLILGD
How it was run: (§1)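 Percent inhibition measured at 10 µM compound using the standard Z′-LYTE protocol, as part of a 225-kinase standard panel screen.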

[2] = target: T2, MARK3 (Homo sapiens, UniProt P27448)
T2 construct: purchased ThermoFisher (SelectScreen, Z'-LYTE)
How it was run: as §1

[3] = target: T3, STK25 (YSK1) (Homo sapiens, UniProt O00506)
T3 construct: purchased ThermoFisher (SelectScreen, Z'-LYTE)
How it was run: as §1

[4] = target: T4, DYRK3 (Homo sapiens, UniProt O43781)
T4 construct: purchased ThermoFisher (SelectScreen, Z'-LYTE)
T4 sequence (O43781 1-588): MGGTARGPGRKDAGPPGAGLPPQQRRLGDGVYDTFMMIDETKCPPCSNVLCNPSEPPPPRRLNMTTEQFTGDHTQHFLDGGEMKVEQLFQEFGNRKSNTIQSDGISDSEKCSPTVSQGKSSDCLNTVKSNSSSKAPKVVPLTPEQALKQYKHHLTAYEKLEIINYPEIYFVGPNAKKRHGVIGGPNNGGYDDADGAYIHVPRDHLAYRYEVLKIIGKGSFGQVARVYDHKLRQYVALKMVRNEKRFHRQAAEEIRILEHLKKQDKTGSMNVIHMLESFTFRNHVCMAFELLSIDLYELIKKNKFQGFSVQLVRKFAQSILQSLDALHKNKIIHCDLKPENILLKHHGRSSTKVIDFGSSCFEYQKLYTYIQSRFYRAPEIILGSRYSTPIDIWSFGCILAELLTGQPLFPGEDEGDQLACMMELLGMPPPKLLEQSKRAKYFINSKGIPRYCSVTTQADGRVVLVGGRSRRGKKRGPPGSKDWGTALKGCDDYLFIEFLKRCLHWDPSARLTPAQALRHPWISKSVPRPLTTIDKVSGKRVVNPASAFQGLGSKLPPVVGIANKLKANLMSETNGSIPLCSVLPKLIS
How it was run: as §1

[5] = target: T5, SGK2 (Homo sapiens, UniProt Q9HBY8)
T5 construct: purchased ThermoFisher (SelectScreen, Z'-LYTE)
T5 sequence (Q9HBY8 1-367): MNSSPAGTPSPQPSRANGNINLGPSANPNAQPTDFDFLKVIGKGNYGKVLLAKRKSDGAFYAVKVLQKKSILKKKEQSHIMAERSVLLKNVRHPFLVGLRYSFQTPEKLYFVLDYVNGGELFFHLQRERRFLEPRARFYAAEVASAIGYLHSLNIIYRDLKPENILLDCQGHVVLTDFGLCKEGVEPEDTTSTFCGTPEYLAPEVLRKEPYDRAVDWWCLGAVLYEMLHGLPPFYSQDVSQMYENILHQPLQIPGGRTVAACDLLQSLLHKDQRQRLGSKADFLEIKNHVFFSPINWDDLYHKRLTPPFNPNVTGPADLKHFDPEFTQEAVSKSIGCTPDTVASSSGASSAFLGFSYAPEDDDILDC
How it was run: as §1

[6] = target: T6, MAP4K2 (GCK) (Homo sapiens, UniProt Q12851)
T6 construct: purchased ThermoFisher (SelectScreen, Z'-LYTE)
T6 sequence (Q12851 1-820): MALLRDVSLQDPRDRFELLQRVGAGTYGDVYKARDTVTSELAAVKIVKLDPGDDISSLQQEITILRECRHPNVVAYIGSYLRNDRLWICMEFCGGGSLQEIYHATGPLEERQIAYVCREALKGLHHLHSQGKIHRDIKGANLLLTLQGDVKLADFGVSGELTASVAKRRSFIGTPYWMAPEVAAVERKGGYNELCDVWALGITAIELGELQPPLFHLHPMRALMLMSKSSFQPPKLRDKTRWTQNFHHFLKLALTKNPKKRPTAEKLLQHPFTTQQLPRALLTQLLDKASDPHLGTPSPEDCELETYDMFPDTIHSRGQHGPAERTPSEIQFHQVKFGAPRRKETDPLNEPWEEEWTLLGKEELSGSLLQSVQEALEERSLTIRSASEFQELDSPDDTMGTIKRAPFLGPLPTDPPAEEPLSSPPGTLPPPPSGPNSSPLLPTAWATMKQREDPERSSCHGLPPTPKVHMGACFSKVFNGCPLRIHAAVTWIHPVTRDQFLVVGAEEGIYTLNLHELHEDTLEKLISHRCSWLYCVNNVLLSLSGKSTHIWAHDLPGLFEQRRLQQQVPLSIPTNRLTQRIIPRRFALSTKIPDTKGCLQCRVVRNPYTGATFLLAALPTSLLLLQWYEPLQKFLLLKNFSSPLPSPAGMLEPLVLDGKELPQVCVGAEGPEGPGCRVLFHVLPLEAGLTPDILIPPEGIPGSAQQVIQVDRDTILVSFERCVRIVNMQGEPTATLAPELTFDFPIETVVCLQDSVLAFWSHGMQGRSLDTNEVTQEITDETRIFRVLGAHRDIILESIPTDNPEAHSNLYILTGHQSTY
How it was run: as §1

[7] = target: T7, PASK (Homo sapiens, UniProt Q96RG2)
T7 construct: purchased ThermoFisher (SelectScreen, Z'-LYTE)
How it was run: as §1

[8] = target: T8, RPS6KB1 (p70S6K) (Homo sapiens, UniProt P23443)
T8 construct: purchased ThermoFisher (SelectScreen, Z'-LYTE)
How it was run: as §1

[9] = target: T9, FYN (Homo sapiens, UniProt P06241)
T9 construct: purchased ThermoFisher (SelectScreen, Z'-LYTE)
How it was run: as §1

[10] = target: T10, BLK (Homo sapiens, UniProt P51451)
T10 construct: purchased ThermoFisher (SelectScreen, Z'-LYTE)
How it was run: as §1

[11] = target: T11, ABL1 (Homo sapiens, UniProt P00519)
T11 construct: purchased ThermoFisher (SelectScreen, Z'-LYTE)
How it was run: as §1

T10 sequence (P51451 whole entry): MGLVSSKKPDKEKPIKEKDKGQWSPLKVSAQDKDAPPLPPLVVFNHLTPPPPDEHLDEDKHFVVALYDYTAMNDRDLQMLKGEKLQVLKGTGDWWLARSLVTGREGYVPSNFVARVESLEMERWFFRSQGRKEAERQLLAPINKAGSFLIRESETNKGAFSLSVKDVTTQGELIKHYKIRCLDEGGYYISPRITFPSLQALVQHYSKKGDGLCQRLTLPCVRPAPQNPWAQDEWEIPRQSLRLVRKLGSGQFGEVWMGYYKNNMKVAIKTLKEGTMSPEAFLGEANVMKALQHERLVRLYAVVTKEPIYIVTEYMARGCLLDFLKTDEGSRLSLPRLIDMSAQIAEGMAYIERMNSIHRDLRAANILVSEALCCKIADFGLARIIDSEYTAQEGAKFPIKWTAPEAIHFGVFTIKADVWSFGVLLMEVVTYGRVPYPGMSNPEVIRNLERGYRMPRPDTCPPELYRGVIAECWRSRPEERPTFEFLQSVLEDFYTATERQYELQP
T2 sequence (P27448 whole entry): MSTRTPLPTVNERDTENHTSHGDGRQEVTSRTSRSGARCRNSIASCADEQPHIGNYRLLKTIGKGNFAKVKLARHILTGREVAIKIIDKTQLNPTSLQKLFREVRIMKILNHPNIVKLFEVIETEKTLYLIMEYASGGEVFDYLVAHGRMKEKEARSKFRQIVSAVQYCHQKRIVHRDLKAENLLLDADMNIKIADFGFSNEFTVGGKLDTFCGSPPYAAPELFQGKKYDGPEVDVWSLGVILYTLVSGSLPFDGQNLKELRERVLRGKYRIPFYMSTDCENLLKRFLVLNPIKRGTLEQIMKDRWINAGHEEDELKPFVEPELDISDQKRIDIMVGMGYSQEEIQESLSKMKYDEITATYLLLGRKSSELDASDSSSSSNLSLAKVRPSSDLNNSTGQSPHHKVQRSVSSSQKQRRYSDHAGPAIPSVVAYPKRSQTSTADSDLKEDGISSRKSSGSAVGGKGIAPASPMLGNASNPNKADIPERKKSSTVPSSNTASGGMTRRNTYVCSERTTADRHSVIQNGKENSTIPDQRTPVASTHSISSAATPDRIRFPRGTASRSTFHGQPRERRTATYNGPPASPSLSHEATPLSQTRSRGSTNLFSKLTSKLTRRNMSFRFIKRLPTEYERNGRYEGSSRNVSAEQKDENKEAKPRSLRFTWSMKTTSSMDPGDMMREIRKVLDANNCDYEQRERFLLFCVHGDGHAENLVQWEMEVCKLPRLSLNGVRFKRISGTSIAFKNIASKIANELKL
T7 sequence (Q96RG2 whole entry): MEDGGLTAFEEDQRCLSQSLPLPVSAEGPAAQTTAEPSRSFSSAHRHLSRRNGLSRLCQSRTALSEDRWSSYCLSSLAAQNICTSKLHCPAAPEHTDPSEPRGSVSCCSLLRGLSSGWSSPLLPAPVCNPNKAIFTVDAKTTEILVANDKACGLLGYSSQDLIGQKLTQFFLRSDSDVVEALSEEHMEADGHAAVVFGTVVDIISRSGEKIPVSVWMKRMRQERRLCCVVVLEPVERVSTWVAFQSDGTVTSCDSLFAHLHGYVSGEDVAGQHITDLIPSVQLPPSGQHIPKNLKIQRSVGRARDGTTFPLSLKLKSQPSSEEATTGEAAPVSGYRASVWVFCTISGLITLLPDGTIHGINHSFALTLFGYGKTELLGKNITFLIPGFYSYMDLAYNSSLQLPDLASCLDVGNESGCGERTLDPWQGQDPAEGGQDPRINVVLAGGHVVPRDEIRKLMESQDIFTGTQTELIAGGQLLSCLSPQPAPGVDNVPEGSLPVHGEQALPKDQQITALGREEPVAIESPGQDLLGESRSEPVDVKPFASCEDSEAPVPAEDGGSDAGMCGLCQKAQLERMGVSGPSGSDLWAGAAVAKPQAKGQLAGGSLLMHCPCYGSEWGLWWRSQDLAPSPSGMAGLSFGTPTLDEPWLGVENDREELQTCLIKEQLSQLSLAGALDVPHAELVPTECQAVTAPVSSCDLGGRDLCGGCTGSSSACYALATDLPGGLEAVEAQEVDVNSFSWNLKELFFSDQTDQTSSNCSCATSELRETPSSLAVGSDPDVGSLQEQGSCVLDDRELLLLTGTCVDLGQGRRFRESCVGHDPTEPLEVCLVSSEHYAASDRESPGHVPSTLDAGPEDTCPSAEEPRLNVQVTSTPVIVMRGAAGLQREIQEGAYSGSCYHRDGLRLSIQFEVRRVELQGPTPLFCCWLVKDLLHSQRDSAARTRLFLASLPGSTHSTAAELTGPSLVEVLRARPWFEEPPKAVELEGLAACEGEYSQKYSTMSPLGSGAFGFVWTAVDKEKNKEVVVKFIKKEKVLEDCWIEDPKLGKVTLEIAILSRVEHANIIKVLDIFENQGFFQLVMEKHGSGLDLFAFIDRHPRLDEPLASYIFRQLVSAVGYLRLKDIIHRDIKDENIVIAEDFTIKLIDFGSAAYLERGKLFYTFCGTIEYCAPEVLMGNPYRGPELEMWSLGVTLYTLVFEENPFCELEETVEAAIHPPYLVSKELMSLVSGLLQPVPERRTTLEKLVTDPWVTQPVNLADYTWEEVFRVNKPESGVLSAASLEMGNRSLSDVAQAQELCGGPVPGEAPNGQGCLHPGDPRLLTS
T9 sequence (P06241 whole entry): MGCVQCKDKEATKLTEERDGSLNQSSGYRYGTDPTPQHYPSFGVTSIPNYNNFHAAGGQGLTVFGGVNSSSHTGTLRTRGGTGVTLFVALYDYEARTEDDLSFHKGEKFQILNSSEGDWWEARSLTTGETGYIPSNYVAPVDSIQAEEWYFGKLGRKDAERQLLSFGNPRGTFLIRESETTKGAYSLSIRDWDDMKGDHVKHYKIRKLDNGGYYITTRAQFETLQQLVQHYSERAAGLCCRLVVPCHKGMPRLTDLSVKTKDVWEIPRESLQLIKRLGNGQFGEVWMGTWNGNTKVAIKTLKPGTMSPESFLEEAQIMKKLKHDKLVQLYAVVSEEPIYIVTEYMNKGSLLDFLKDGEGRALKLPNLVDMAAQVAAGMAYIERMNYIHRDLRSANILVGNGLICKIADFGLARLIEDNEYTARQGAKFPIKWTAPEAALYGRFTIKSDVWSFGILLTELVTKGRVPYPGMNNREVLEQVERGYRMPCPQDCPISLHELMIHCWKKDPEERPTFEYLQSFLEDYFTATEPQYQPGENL
T3 sequence (O00506 whole entry): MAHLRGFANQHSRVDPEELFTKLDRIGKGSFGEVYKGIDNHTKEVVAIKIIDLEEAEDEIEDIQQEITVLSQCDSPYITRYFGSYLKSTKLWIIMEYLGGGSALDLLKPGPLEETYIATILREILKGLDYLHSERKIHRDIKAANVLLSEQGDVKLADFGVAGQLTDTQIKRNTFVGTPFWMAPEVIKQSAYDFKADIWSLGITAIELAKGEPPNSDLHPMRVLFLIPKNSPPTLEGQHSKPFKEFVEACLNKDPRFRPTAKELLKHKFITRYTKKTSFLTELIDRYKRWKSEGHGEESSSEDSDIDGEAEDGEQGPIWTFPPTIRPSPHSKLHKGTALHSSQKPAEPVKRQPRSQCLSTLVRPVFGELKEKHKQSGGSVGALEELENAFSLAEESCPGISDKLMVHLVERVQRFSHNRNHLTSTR
T8 sequence (P23443 whole entry): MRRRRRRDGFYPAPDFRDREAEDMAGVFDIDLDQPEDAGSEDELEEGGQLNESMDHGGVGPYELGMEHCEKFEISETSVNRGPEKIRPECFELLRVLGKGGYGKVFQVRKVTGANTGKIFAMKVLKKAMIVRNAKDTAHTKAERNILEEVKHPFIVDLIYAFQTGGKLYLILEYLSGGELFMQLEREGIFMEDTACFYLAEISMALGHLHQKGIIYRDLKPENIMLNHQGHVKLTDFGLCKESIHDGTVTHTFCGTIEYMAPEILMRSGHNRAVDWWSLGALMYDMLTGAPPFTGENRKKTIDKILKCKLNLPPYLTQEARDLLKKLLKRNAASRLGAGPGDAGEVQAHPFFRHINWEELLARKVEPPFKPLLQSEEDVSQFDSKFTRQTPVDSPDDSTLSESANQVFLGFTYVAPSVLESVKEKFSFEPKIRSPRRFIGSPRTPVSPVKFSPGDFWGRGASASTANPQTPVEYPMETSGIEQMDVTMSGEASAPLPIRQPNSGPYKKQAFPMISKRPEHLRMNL

| Compound | inhibition at 10 µM [1] [%] | inhibition at 10 µM [2] [%] | inhibition at 10 µM [3] [%] | inhibition at 10 µM [4] [%] | inhibition at 10 µM [5] [%] | inhibition at 10 µM [6] [%] | inhibition at 10 µM [7] [%] | inhibition at 10 µM [8] [%] | inhibition at 10 µM [9] [%] | inhibition at 10 µM [10] [%] | inhibition at 10 µM [11] [%] | other results |
| --- | --- | --- | --- | --- | --- | --- | --- | --- | --- | --- | --- | --- |
| XMD8-92 [Compound 2, reference compound] |  |  |  |  |  |  |  |  |  |  |  | MAP2K6 (MKK6) % Inhibition [1]: 8%; MARK3 % Inhibition ([2]; 10 µM compound, ATP Km app): 28%; STK25 (YSK1) % Inhibition ([3]; 10 µM compound, ATP Km app): 9.49%; DYRK3 % Inhibition ([4]; 10 µM compound, ATP Km app): 31%; SGK2 % Inhibition ([5]; 10 µM compound, ATP Km app): 68%; MAP4K2 (GCK) % Inhibition ([6]; 10 µM compound, ATP Km app): 46%; PASK % Inhibition ([7]; 10 µM compound, ATP Km app): 49%; RPS6KB1 (p70S6K) % Inhibition ([8]; 10 µM compound, ATP Km app): 5%; FYN % Inhibition ([9]; 10 µM compound, ATP Km app): -14%; BLK % Inhibition ([10]; 10 µM compound, ATP Km app): 38%; ABL1 % Inhibition ([11]; 10 µM compound, ATP Km app): 72% |
| Cc1ncc(-c2nc(Nc3ccc(C(=O)NCCN4CCCCC4)cc3)ncc2F)n1C(C)C [Compound 3] | 88 | 84 | 72 | 93 | 66 | 77 | 30 | 87 | 74 | 65 | 91 |  |
| Cc1cc(Nc2nc(N)nn2C(=O)NC(C)C)ccc1Cl [Compound 5] | -1.06 | 25 | 12 | 0.141 | -20 | 50 | 1.44 | 7 | 15 | 22 | 57 |  |
